Measured values as given in the METLIN SMRT retention time set (Domingo-Almenara et al. 2019).

Assay: gradient 5% acetonitrile 3 min, to 50% in 2 min, to 85% in 15 min, held 3 min, 100 µL/min
Conditions: column: Zorbax Extend-C18 2.1 x 50 mm; eluents: water / acetonitrile, 0.1% formic acid
Procedure, shortened: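 Pure standards were run in mixtures of ~100 molecules by HPLC coupled to a quadrupole time-of-flight mass spectrometer. The column was a Zorbax Extend-C18 (2.1 × 50 mm, 1.8 μm) at 100 μL/min, with water and acetonitrile each containing 0.1% formic acid, in positive and negative ionization mode. Dead and dwell volumes were 40 μL and 900 μL. Retention time was taken from computationally picked adduct peaks, each manually inspected, with data collected over 3 months.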

SMILES | RP-LC retention time [s]
O=C(c1cc(-c2ccccn2)n[nH]1)N1CCN(C(=O)C2CCC2)CC1 | 612
O=C(NC1CCN(c2nnc3ccc(C(F)(F)F)cn23)CC1)c1cccc(F)c1 | 782
O=C(Nc1ccc2c(c1)CN(C(=O)C1COc3ccccc3O1)CCO2)C1CC1 (centres undefined) | 823
COc1cccc(-c2nc(C3CCN(S(=O)(=O)c4ccc(C)cc4)CC3)no2)c1 | 1150
COc1cc(C(=O)Nc2noc3ncccc23)cc(OC)c1OC | 620
CN1CCC(OC2CCN(S(=O)(=O)c3ccccc3F)CC2)CC1 | 620
O=C1COc2ccc(S(=O)(=O)N3CCC(C(=O)N4CCN(c5ccccc5)CC4)CC3)cc2N1 | 766
Cc1ccc(-c2nnc(Cc3nc(-c4cccc(Cl)c4)no3)o2)cc1F | 1170
OC[C@@H]1CN(Cc2ccccn2)C[C@H]1c1nc(-c2cccnc2)no1 | 551
OCCNCc1ccc(-c2ccc(Cl)cc2Cl)o1 | 642
O=C(Cn1nc(S(=O)(=O)c2cccc(F)c2)ccc1=O)N1CCN(c2ccccc2F)CC1 | 885
C=Cc1ccc(Cn2cc(S(=O)(=O)N3CCOCC3)ccc2=O)cc1 | 825
O=S(=O)(Cc1cccc(Cl)c1)N1CCc2nc(-c3ccc(F)cc3)ncc2C1 | 1110
O=C(C1=NN(CCc2ccccc2)c2ccccc2S1(=O)=O)N1CCCC1 | 857
CC(=O)N1CCC(CC(=O)N2CCCCCCN(C)C(=O)[C@@H]3CCC[C@@H]32)CC1 | 663
COc1ccc(NC(=O)Nc2ccc(-c3cn4cccnc4n3)cc2)cc1 | 616
Cc1ccccc1NC(=O)Cc1csc2nc(-c3cccc(Br)c3)cn12 | 948
CCOCCCNC(=O)C1CCN(c2cc(Sc3cc(C)ccc3C)ncn2)CC1 | 775
COc1ccc(NC(=O)N2CC(C)Oc3ccc(C)cc32)cc1OC (centres undefined) | 921
CCOCCCNC(=O)C(C)n1c(=O)c(C(F)(F)F)nc2cc(C)c(C)cc21 (centres undefined) | 1080
O=C(CSc1nnc2c3cc(-c4ccc(F)cc4)nn3ccn12)NCc1ccco1 | 787
CCCCC(=O)N1CCc2c(c(C(=O)N3CCCC(C(=O)Nc4ccccc4C)C3)nn2C)C1 (centres undefined) | 797
CCc1nc(N)n(CC(=O)Nc2ccc(Br)cc2)c(=O)c1C | 666

SMILES | RP-LC retention time [s]
CN1C(=O)c2cc(C(=O)NCCc3ccc(Cl)cc3)nn2CC1(C)C(=O)NCc1ccccc1 (centres undefined) | 823
CCOc1ccc(-c2noc(CN3N=NC4C(=O)N(c5ccc(F)cc5)C(=O)C43)n2)cc1OC (centres undefined) | 936
COc1ccc2c(c1)-c1nc(NC(=O)c3ccc(F)cc3)sc1CC2 | 1140
COc1ccc(CN2C[C@@H]3C(=O)N(Cc4ccc5c(c4)OCO5)C(=O)[C@@H]3C2)cc1OC | 659
CCC(=O)N1CCc2cc(N3CC(C(=O)Nc4ccc(C)cc4Cl)CC3=O)ccc21 (centres undefined) | 789
CNC(=O)c1ccsc1NC(=O)CN1C(=O)c2ccccc2C1=O | 701
O=C(Nc1nc2c(s1)CCCC2)c1cccc(C(F)(F)F)c1 | 1030
Cc1nc(-c2cc3cccc(C)c3nc2N2CCN(c3ccccc3F)CC2)no1 | 733
COC(=O)c1cccc(C(=O)Nc2ccc(C)c(Cl)c2)n1 | 991
COC(=O)c1ccc2c(=O)n(-c3cc(C)cc(C)c3)c(N3CCN(Cc4ccccc4)CC3)nc2c1 | 770
CCc1nc2cc(-c3noc(C4(c5ccc(OC)cc5)CC4)n3)ccc2o1 | 690
COc1ccc(-c2cc(N3CCCC(C(=O)Nc4cccc5cccnc45)C3)ncn2)cc1 (centres undefined) | 629
O=C(NCCc1cccs1)C1CCN(Cc2cc3ccccc3n2Cc2cccc(Cl)c2)CC1 | 833
CCC(=O)Nc1nc(-c2ccc3c(c2)N(CC)C(=O)CO3)cs1 | 752
CCc1ccc(C2=C(C)C(N3CCC(C(=O)NC(C)C)CC3)=NS2(=O)=O)cc1 | 812
Cc1cccc(-c2noc(Cn3cnc4c(oc5ccccc54)c3=O)n2)c1 | 996
Cc1ccc(C(=O)N(C)C2CCc3nnc(C)n3CC2)s1 (centres undefined) | 613
CCc1nn2c(CNC(=O)c3ccc(OC)c(F)c3)c(-c3ccccc3)nc2s1 | 912
CCOC(=O)c1cc[nH]c1CC(=O)NC | 672
Cc1ccc(-c2ncccc2CNS(=O)(=O)c2ccc(C)cc2)cc1 | 684
Cc1cc(NC(=O)C2Oc3ccccc3NC2=O)ccc1Br (centres undefined) | 865
CNC(=O)[C@H]1O[C@@H](n2cnc3c(NCc4ccc(N)cc4)ncnc32)C(O)[C@H]1O (some centres undefined) | 569
CCN1C(=O)c2cccnc2Sc2cc(NC(=O)CCc3ccccc3OC)ccc21 | 871

SMILES | RP-LC retention time [s]
COc1ccccc1C(=O)NC1CCN(c2cc(-c3ccccc3)[nH]n2)C1 (centres undefined) | 718
O=S(=O)(NCC(O)C1CCCCC1)c1ccc(OC(F)(F)F)cc1 (centres undefined) | 949
Cc1cccc(NC(=O)C2CCCN(c3nnc(C)c4c(C)n(-c5ccccc5)nc34)C2)c1C (centres undefined) | 754
O=C(NCCOc1ccc2nnc(-c3cccc(F)c3)n2n1)c1ccc(=O)[nH]n1 | 598
COc1cc(OC)c(NC(=O)N(C)Cc2nc3cc(C(=O)N(C)C)ccc3n2C)cc1Cl | 619
CC1=C(c2ccc(C)cc2)S(=O)(=O)N=C1N1CCCN(C(=O)c2cccc(C#N)c2)CC1 | 885
CN(C(=O)Cc1ccccc1)[C@H](CN1CCCC1)c1ccccc1 | 726
CN(C)c1ccc(-c2nc3cnccn3c2Nc2ccc(Cl)cc2)cc1 | 880
CCCN1CCN(c2cc(C(=O)O)c3cc(NS(=O)(=O)c4ccc(CC)cc4)ccc3n2)CC1 | 642
CCc1ccccc1S(=O)(=O)N1CCc2nc(-c3ccc(OC)cc3)ncc2C1 | 1150
CC(C)N1CCn2c(nc3cc(C(=O)NC4CCCCCC4)ccc32)C1=O | 750
O=C(O)c1cc2c([nH]c1=O)CCCC2O (centres undefined) | 516
Cc1ccc(NC(=O)Cn2nc3n(c2=O)CCCC3)cc1F | 677
O=C(NCCc1c[nH]c2ccccc12)c1noc2c1CSc1ccccc1-2 | 1130
Cc1cc(F)ccc1NS(=O)(=O)c1cc2n(c1)CCCN(C)C2=O | 687
Cc1ccn(C(=O)c2ccc(NC(=O)CC(C)C)cc2)n1 | 804
O=C(c1ccoc1)N1CCN(c2cc(-c3ccc(Cl)cc3)[nH]n2)CC1 | 774
Cc1ccccc1NC(=O)Cn1cnc2nc(N3CCC(C(=O)NC4CC4)CC3)sc2c1=O | 644
CCCn1cc(CCNC(=O)Nc2c(F)cccc2F)c2cccnc21 | 699
CCCn1cc(CCNC(=O)c2cccc(Cl)c2)c2cccnc21 | 812
CC1(CNC(=O)NCCc2ccccc2)CCOCC1 | 696
O=C(C1CCCN(c2ncnc3c2nc2n3CCCCC2)C1)N1CCN(Cc2ccccc2)CC1 (centres undefined) | 615
O=C(CSc1nc2ccccc2[nH]1)Nc1nc2ccccc2s1 | 577

SMILES | RP-LC retention time [s]
CCOC(=O)NCC1CCN(S(C)(=O)=O)CC1 | 603
Cc1cccc(NC(=O)N2CCC(N3CCN(Cc4ccccc4)C(=O)C3=O)CC2)c1 | 744
Cc1ccn(CC(=O)N2CC(n3cc(COc4ccc(F)cc4)nn3)C2)n1 | 716
COc1ccc(N2CCN(C(=O)Cn3nc(C(=O)N4CCCC4)c4ccccc43)CC2)cc1 | 753
CN(C)c1ccc(/C=C2\C(=O)Nc3ccccc32)cc1 | 1010
Cc1ccccc1OCC1c2ccsc2CCN1C(=O)CN(CC1CCCO1)C(=O)NC(C)(C)C (centres undefined) | 1140
CCOC(=O)c1c(S(=O)(=O)N2CCC(C(=O)Nc3cccnc3)CC2)c(C)n(C)c1C | 623
O=C(Nc1cccc(Br)c1)N1CCCC1c1nc(-c2ccc(F)cc2F)no1 (centres undefined) | 1060
CC(C)C(=O)Nc1ccc(N2CCN(c3ccccc3)C2=O)nc1 | 832
COc1ccc(NC(=O)NC2CCN(c3ccc(C)c(C)c3)C2=O)cc1F (centres undefined) | 800
COCCCn1c(=O)c2ccccc2n(Cc2nc(-c3ccc4c(c3)OCO4)no2)c1=O | 954
CC(C)NC(=O)c1cc(C2CC2)[nH]n1 | 644
O=C(Cn1c(=O)oc2ccccc21)N1C[C@H]2C[C@H](C1)[C@H]1CCCC(=O)N1C2 | 658
CCOc1ccc(NC(=O)c2c(NC(=O)c3ccncc3)sc3c2CCC3)cc1 | 1270
N#C/C(=C\c1c[nH]c2ccccc12)C(N)=O | 713
O=c1n(Cc2cc(F)cc(F)c2)nc2c(S(=O)(=O)N3CCCC3)cccn12 | 861
O=C(Nc1cccc(Cl)c1)N1CCN(Cc2nc3ccccc3o2)CC1 | 728
CCC1(C(=O)Nc2ccc(OC)cc2)CCCCC(=O)N1 (centres undefined) | 666
Cn1cc(C(=O)Nc2cccc(Cl)c2)c2nn(-c3ccccc3)c(=O)c-2c1 | 1040
O=S(=O)(Nc1ccc(Cn2cncn2)cc1)c1cccc(Cl)c1 | 716
